In patent EP2822595B1, “SPHINGOSINE-1 -PHOSPHATE RECEPTORS MODULATORS FOR IMPROVING VACCINE IMMUNIZATION” (Istituto Superiore di Sanità, priority 2012, dated 2013):
Like-named read-outs stand apart in the source and are kept apart here.

What was measured:
[1] = system: TT-specific antibody responses; type: in vivo, BALB/c mice; details: sera
[2] = system: TT-specific antibody responses; type: in vivo, BALB/c mice; details: FTY720 0.5 mg/Kg intragastric 48 and 24 hours before intranasal TT+CT
[3] = system: TT-specific antibody responses; type: in vivo, BALB/c mice; details: for titre of TT-specific IgA antibodies: one week after the recall dose, vs TT+CT without treatment
[4] = system: Ova-specific CD4^+ and CD8^+ T lymphocytes; type: in vivo, BALB/c mice; details: 8 months after the fourth immunization, vs non treated
[5] = system: antigen-specific CD4^+ and CD8^+ proliferating cells; assay: CFSE proliferation assay of TT-specific T lymphocytes after systemic (intraperitoneal) immunization; type: in vivo, BALB/c mice; details: 4 months after the second intraperitoneal immunization, vs non treated, p < 0.05
[6] = system: S1P receptors (S1P1, S1P3, S1P4 e S1P5); details: 4 of 5 S1P receptors (S1P1, S1P3, S1P4 e S1P5); cited from earlier work
[7] = system: antigen-specific CD4^+ and CD8^+ T lymphocytes; assay: CFSE proliferation assay of TT-specific T lymphocytes after intranasal immunization; type: in vivo, BALB/c mice
[8] = system: patients affected by Multiple Sclerosis; details: cited from earlier work
[9] = system: TT-specific antibody secreting cells (ASC); type: in vivo, BALB/c mice; details: bone marrow
[10] = serum, TT-specific, TT+CT intranasal plus FTY720 vs without, at different analyzed kinetic points
[11] = draining (mediastinal) lymph nodes, two weeks after the fourth immunization, vs immunized non treated mice, p < 0.05
[12] = draining lymph nodes, 8 months after the fourth immunization, one week after one recall dose, vs non treated, p < 0.05
[13] = spleen, 8 months after the fourth immunization, after one recall dose, vs non treated
[14] = spleen, two weeks after the fourth immunization, treated vs non treated
[15] = oral, 0.5 and 1.25 mg a day, phase III clinical trials

## CCCCCCCCc1ccc(CCC(N)(CO)CO)cc1.Cl [FTY720, 2-amino-2-(2-(4-octylphenyl)ethyl)propane-1,3-diol hydrochloride]
[1]; one month after the second intraperitoneal immunization, treated vs non treated, differences decreased
  titre of anti-tetanus IgG antibodies, differences between the two groups: still detectable
[1]; one week after the first intraperitoneal immunization with TT+CT, FTY720 0.5 mg/Kg intragastrically the day after immunization, TT+CT without treatment: 63 times
  titre of anti-tetanus IgG antibodies: 203 times with respect to the titre of mice immunized only with TT
[1]; one week after the second intraperitoneal immunization, TT+CT plus FTY720 (575) vs TT+CT without treatment (152), apparently times over TT only
  titre of anti-tetanus IgG antibodies: 575
[2]; one week after the second immunization, data not showed
  titre of anti-tetanus IgG antibodies: only the titre of anti-tetanus IgG antibodies in mice immunized with TT and CT was appreciable
[2]; one week after the third immunization
  titre of IgG antibody specific for the TT: higher in mice immunized with TT and CT in the absence of treatment
[3]; saliva
  titre of TT-specific IgA antibodies: higher titres
[3]; [10]
  titre of IgG1 subclass: Increase of the titre
  titre of IgG2a subclass: Increase of the titre
[3]; serum, four months after the fourth immunization (pre-boost), vs immunized mice without treatment
  anti-TT IgG antibody titre: maintained at higher levels
[3]; serum, one week after boost given four months after the fourth immunization, vs immunized mice without treatment
  IgG antibodies specific for the TT: higher levels
[3]; serum, one week after the fourth intranasal immunization, TT+CT plus FTY720 (761) vs TT+CT without treatment (304), apparently times over TT only
  anti-tetanus IgG antibody titre: 761
[3]; serum, one week after the second intranasal immunization with TT+CT, FTY720 0.5 mg/Kg intragastric the day after first and second immunization, TT+CT without treatment: 54 times
  anti-tetanus IgG antibody titre: 305 times with respect to the titre of mice which received only TT
[3]; serum, one week after the third intranasal immunization, TT+CT plus FTY720 vs TT+CT without treatment
  anti-tetanus IgG antibody titre: increase
[3]; vaginal washes (VW)
  titre of TT-specific IgA antibodies: higher titres
[4]; draining lymph nodes
  percentage of Ova-specific CD4^+ T lymphocytes: higher percentage
  percentage of Ova-specific CD8^+ T lymphocytes: higher percentage
[4]; spleen
  percentage of Ova-specific CD4^+ T lymphocytes: higher percentage
  percentage of Ova-specific CD8^+ T lymphocytes: higher percentage
[5]; lymph nodes
  percentage of antigen-specific CD4^+ proliferating cells: higher percentage
  percentage of antigen-specific CD8^+ proliferating cells: higher percentage
[5]; spleen
  percentage of antigen-specific CD4^+ proliferating cells: higher percentage
  percentage of antigen-specific CD8^+ proliferating cells: higher percentage
[6]
  agonist activity at S1P receptors: strong agonist
[7]; [11]
  proliferation of antigen-specific CD4^+ T lymphocytes: significantly higher
  proliferation of antigen-specific CD8^+ T lymphocytes: significantly higher
[7]; [12]
  proliferation of antigen-specific CD4^+ T lymphocytes: higher
  proliferation of antigen-specific CD8^+ T lymphocytes: higher
[7]; [13]
  percentage of antigen-specific CD4^+ T lymphocytes: higher percentage
  percentage of antigen-specific CD8^+ T lymphocytes: higher percentage
[7]; [14]
  proliferation of antigen-specific CD4^+ T lymphocytes: comparable
  proliferation of antigen-specific CD8^+ T lymphocytes: comparable
[8]; mainly in patients who received the higher dose (1.25 mg a day)
  infectious complications: some infectious complications
[8]; [15]
  effectiveness in Multiple Sclerosis patients: effective
  tolerability in Multiple Sclerosis patients: well tolerated
[9]; two weeks after the fourth immunization, immunized and not treated mice: 60
  number of anti-TT IgG ASC: 115 ASC/1×10^6 of cells
[9]; two weeks after the fourth immunization, non treated: 40
  number of anti-TT IgA ASC: 80 ASC/1×10^6 of cells
[9]; two weeks after the recall dose (4 months after fourth immunization), non treated: 123
  number of anti-TT IgG ASC: 240 ASC/1×10^6 of cells
[9]; two weeks after the recall dose, non treated: 58
  number of anti-TT IgA ASC: 136 ASC/1×10^6 of cells
